US10351594B2, “Process for preparing compounds having triple activities of thrombolysis, antithrombosis, and radical scavenging” (Shanghai Lumosa Therapeutics Co., Ltd., priority 2013, dated 2019)
Where two headings read alike, the source gives them in different places.

Tested on: stroke rats
[1] = 1 μmol/kg 5Ak after 4 hours from stroke onset, 1st day
[2] = 1 μmol/kg 5Ak after 4 hours from stroke onset, 2nd day
[3] = 1 μmol/kg 5Ak after 4 hours from stroke onset, 3rd day
[4] = 1 μmol/kg 5Ak after 4 hours from stroke onset, 4th day
[5] = 1 μmol/kg 5Ak after 4 hours from stroke onset, 5th day
[6] = 1 μmol/kg 5Ak after 4 hours from stroke onset, 6th day
[7] = 1 μmol/kg 5Ak after 6 hours from stroke onset, 1st day
[8] = 1 μmol/kg 5Ak after 6 hours from stroke onset, 2nd day
[9] = 1 μmol/kg 5Ak after 6 hours from stroke onset, 3rd day
[10] = 1 μmol/kg 5Ak after 6 hours from stroke onset, 4th day
[11] = 1 μmol/kg 5Ak after 6 hours from stroke onset, 5th day
[12] = 1 μmol/kg 5Ak after 6 hours from stroke onset, 6th day
[13] = 1 μmol/kg 5Ak after 24 hours from stroke onset, 1st day
[14] = 1 μmol/kg 5Ak after 24 hours from stroke onset, 2nd day
[15] = 1 μmol/kg 5Ak after 24 hours from stroke onset, 3rd day
[16] = 1 μmol/kg 5Ak after 24 hours from stroke onset, 4th day
[17] = 1 μmol/kg 5Ak after 24 hours from stroke onset, 5th day
[18] = 1 μmol/kg 5Ak after 24 hours from stroke onset, 6th day
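Also: male SD rats with thrombus-induced cerebral embolism via internal carotid artery, scored daily by Zealonga neurological deficit scale (0 no deficit to 5 death), lower score better.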

Description: The therapeutic effect was evaluated by neurological functional scores. The lower the score was, the better the therapeutic effect was. A 10% chloral hydrate solution was injected intraperitoneally into male SD rats at a dosage of 400 mg/kg body weight for anesthesia. A longitudinal incision was made at the center of the neck, and the right common carotid artery trunk was separated (about 3 cm in length). External carotid artery branches were each separated and ligated at the hyoid level, and the internal carotid artery was separated from the swollen part of the neck. The incision of the internal carotid artery and the proximal end of the common carotid artery were clipped respectively with noninvasive arterial clips, and the distal end of the external carotid artery was ligated. A catheter containing 0.5 mL thrombus suspension in normal saline was inserted in the external carotid artery trunk. When the clip on the internal carotid artery was released, the 0.5 mL thrombus suspension in normal saline in the catheter slowly flew from the external carotid artery to its proximal end, and then was injected into the arteries in brain through the internal carotid artery. Subsequently, the proximal end of the internal carotid artery was ligated, the arterial clips on the internal carotid artery and the common carotid artery were released, and blood flow was restored. After the wound was stitched up, 20,000 IU penicillin was intramuscularly injected for prevention from infection. […] Self-comparison was performed each day, and the neurological deficit degree was evaluated by the Zealonga method. A score of 0 indicated no sign of loss in neural function, 1 indicated the front limbs on the undamaged side could not stretch out, 2 indicated walking toward the undamaged side, 3 indicated tail-chasing walking in circles toward the undamaged side, 4 indicated involuntary walking with disturbance of consciousness, and 5 indicated death.

SMILES: C[C@H](NC(=O)[C@@H]1CCCN1)C(=O)N[C@@H](CCCCN)C(=O)NCCCC[C@H](NC(=O)[C@@H]1Cc2cc(O)c(O)cc2C(C)(C)N1)C(=O)O [Compound 5Ak, 3S-6,7-dihydroxy-1,1-dimethyl-1,2,3,4-tetrahydro-isoquinoline-3-acyl-Lys(Pro-Ala-Lys)]
- therapeutic effect, result in words (1 μmol/kg 5Ak after 4 hours from stroke onset): definite therapeutic effect
- Daily neural function scores, number of rats under 0 score [1]: 3
- Daily neural function scores, number of rats under 1 score [1]: 5
- Daily neural function scores, number of rats under 2 scores [1]: 1
- Daily neural function scores, number of rats under 3 scores [1]: 1
- Daily neural function scores, number of rats under 4 scores [1]: 0
- Daily neural function scores, number of rats under 5 scores [1]: 0
- Daily neural function scores, number of rats under 0 score [2]: 5
- Daily neural function scores, number of rats under 1 score [2]: 4
- Daily neural function scores, number of rats under 2 scores [2]: 1
- Daily neural function scores, number of rats under 3 scores [2]: 0
- Daily neural function scores, number of rats under 4 scores [2]: 0
- Daily neural function scores, number of rats under 5 scores [2]: 0
- Daily neural function scores, number of rats under 0 score [3]: 3
- Daily neural function scores, number of rats under 1 score [3]: 6
- Daily neural function scores, number of rats under 2 scores [3]: 1
- Daily neural function scores, number of rats under 3 scores [3]: 0
- Daily neural function scores, number of rats under 4 scores [3]: 0
- Daily neural function scores, number of rats under 5 scores [3]: 0
- Daily neural function scores, number of rats under 0 score [4]: 8
- Daily neural function scores, number of rats under 1 score [4]: 1
- Daily neural function scores, number of rats under 2 scores [4]: 1
- Daily neural function scores, number of rats under 3 scores [4]: 0
- Daily neural function scores, number of rats under 4 scores [4]: 0
- Daily neural function scores, number of rats under 5 scores [4]: 0
- Daily neural function scores, number of rats under 0 score [5]: 6
- Daily neural function scores, number of rats under 1 score [5]: 4
- Daily neural function scores, number of rats under 2 scores [5]: 0
- Daily neural function scores, number of rats under 3 scores [5]: 0
- Daily neural function scores, number of rats under 4 scores [5]: 0
- Daily neural function scores, number of rats under 5 scores [5]: 0
- Daily neural function scores, number of rats under 0 score [6]: 8
- Daily neural function scores, number of rats under 1 score [6]: 2
- Daily neural function scores, number of rats under 2 scores [6]: 0
- Daily neural function scores, number of rats under 3 scores [6]: 0
- Daily neural function scores, number of rats under 4 scores [6]: 0
- Daily neural function scores, number of rats under 5 scores [6]: 0
- therapeutic effect, result in words (1 μmol/kg 5Ak after 6 hours from stroke onset): definite therapeutic effect
- Daily neural function scores, number of rats under 0 score [7]: 0
- Daily neural function scores, number of rats under 1 score [7]: 4
- Daily neural function scores, number of rats under 2 scores [7]: 4
- Daily neural function scores, number of rats under 3 scores [7]: 2
- Daily neural function scores, number of rats under 4 scores [7]: 0
- Daily neural function scores, number of rats under 5 scores [7]: 0
- Daily neural function scores, number of rats under 0 score [8]: 0
- Daily neural function scores, number of rats under 1 score [8]: 7
- Daily neural function scores, number of rats under 2 scores [8]: 2
- Daily neural function scores, number of rats under 3 scores [8]: 1
- Daily neural function scores, number of rats under 4 scores [8]: 0
- Daily neural function scores, number of rats under 5 scores [8]: 0
- Daily neural function scores, number of rats under 0 score [9]: 1
- Daily neural function scores, number of rats under 1 score [9]: 6
- Daily neural function scores, number of rats under 2 scores [9]: 2
- Daily neural function scores, number of rats under 3 scores [9]: 1
- Daily neural function scores, number of rats under 4 scores [9]: 0
- Daily neural function scores, number of rats under 5 scores [9]: 0
- Daily neural function scores, number of rats under 0 score [10]: 4
- Daily neural function scores, number of rats under 1 score [10]: 4
- Daily neural function scores, number of rats under 2 scores [10]: 1
- Daily neural function scores, number of rats under 3 scores [10]: 0
- Daily neural function scores, number of rats under 4 scores [10]: 0
- Daily neural function scores, number of rats under 5 scores [10]: 1
- Daily neural function scores, number of rats under 0 score [11]: 7
- Daily neural function scores, number of rats under 1 score [11]: 2
- Daily neural function scores, number of rats under 2 scores [11]: 0
- Daily neural function scores, number of rats under 3 scores [11]: 0
- Daily neural function scores, number of rats under 4 scores [11]: 0
- Daily neural function scores, number of rats under 5 scores [11]: 0
- Daily neural function scores, number of rats under 0 score [12]: 6
- Daily neural function scores, number of rats under 1 score [12]: 3
- Daily neural function scores, number of rats under 2 scores [12]: 0
- Daily neural function scores, number of rats under 3 scores [12]: 0
- Daily neural function scores, number of rats under 4 scores [12]: 0
- Daily neural function scores, number of rats under 5 scores [12]: 0
- therapeutic effect, result in words (1 μmol/kg 5Ak after 24 hours from stroke onset): definite therapeutic effect
- Daily neural function scores, number of rats under 0 score [13]: 1
- Daily neural function scores, number of rats under 1 score [13]: 4
- Daily neural function scores, number of rats under 2 scores [13]: 0
- Daily neural function scores, number of rats under 3 scores [13]: 2
- Daily neural function scores, number of rats under 4 scores [13]: 1
- Daily neural function scores, number of rats under 5 scores [13]: 0
- Daily neural function scores, number of rats under 0 score [14]: 2
- Daily neural function scores, number of rats under 1 score [14]: 3
- Daily neural function scores, number of rats under 2 scores [14]: 3
- Daily neural function scores, number of rats under 3 scores [14]: 1
- Daily neural function scores, number of rats under 4 scores [14]: 0
- Daily neural function scores, number of rats under 5 scores [14]: 0
- Daily neural function scores, number of rats under 0 score [15]: 3
- Daily neural function scores, number of rats under 1 score [15]: 2
- Daily neural function scores, number of rats under 2 scores [15]: 3
- Daily neural function scores, number of rats under 3 scores [15]: 0
- Daily neural function scores, number of rats under 4 scores [15]: 0
- Daily neural function scores, number of rats under 5 scores [15]: 0
- Daily neural function scores, number of rats under 0 score [16]: 2
- Daily neural function scores, number of rats under 1 score [16]: 3
- Daily neural function scores, number of rats under 2 scores [16]: 3
- Daily neural function scores, number of rats under 3 scores [16]: 0
- Daily neural function scores, number of rats under 4 scores [16]: 0
- Daily neural function scores, number of rats under 5 scores [16]: 0
- Daily neural function scores, number of rats under 0 score [17]: 4
- Daily neural function scores, number of rats under 1 score [17]: 3
- Daily neural function scores, number of rats under 2 scores [17]: 1
- Daily neural function scores, number of rats under 3 scores [17]: 0
- Daily neural function scores, number of rats under 4 scores [17]: 0
- Daily neural function scores, number of rats under 5 scores [17]: 0
- Daily neural function scores, number of rats under 0 score [18]: 3
- Daily neural function scores, number of rats under 1 score [18]: 4
- Daily neural function scores, number of rats under 2 scores [18]: 1
- Daily neural function scores, number of rats under 3 scores [18]: 0
- Daily neural function scores, number of rats under 4 scores [18]: 0
- Daily neural function scores, number of rats under 5 scores [18]: 0
- rats that died during successive 6-day treatment (1 μmol/kg 5Ak once per day after 4 hours from stroke onset, ten rats): no death occurred
- rats that died during successive 6-day treatment (1 μmol/kg 5Ak once per day after 6 hours from stroke onset, n=10): one
- rats that died during successive 6-day treatment (1 μmol/kg 5Ak once per day after 24 hours from stroke onset, 8 rats): no death occurred
